Key:
Staphylococcus aureus = test: Zones of inhibition analysis of nitrile rubber film swatches on seeded agar; assay type: cell-based; conditions: for antibacterial properties of polymer film (in words): incorporated into the nitrile rubber latex dip bath; for sides of the film exhibiting antibacterial activity (in words): PHMB in coagulation layer, triclosan in nitrile rubber
Description: Tests were carried out in order to assess which combination of biocidal agents were compatible with the glove manufacturing process and gave the best antimicrobial performance. Small rectangles of nitrile rubber latex were prepared by dipping clean microscope slides into warm coagulant solution, withdrawing them and drying them in an oven at 110° C. The slides were allowed to cool before dipping into the nitrile rubber latex dispersion. They were withdrawn, allowed to drain, and placed in an oven at 110° C. After cooling the layer of cured nitrile rubber was carefully removed from the microscope slide and sent for testing to determine their antimicrobial properties. Active ingredients were incorporated into the coagulant and nitrile polymer latex dispersion as appropriate.
The qualitative measure of their antibacterial performance was carried out by zones of inhibition analysis. The procedure used was for each sample to be assayed against Staphylococcus aureus, a bacterium commonly found on the skin of humans, by comparing their zones of inhibition on an agar preparation.
Seeded agar plates were prepared by adding 0.1 ml of an overnight broth culture into a clean, sterile petri dish, adding approximately 20 ml of an agar preparation that had been sterilised and cooled to 45° C. before use. The selective agar used was Tryptone Soy Agar. The challenge organism was mixed into the agar by gentle swirling to provide a homogeneous suspension. The plates were allowed to set for approximately one hour in a cool dry place.
Swatches of the polymer glove material were cut to approximately 2 cm square and placed on the seeded agar. The petri dishes were then placed in an incubator overnight at 37° C. Migration of the chemicals toxic to the challenge organisms creates a zone around the edge of the swatch where growth of the challenge organism is inhibited. The relative distance of the zone inhibition from the edge of the swatch for each organism gives an indication of the antibacterial efficacy of the products.

[1] = cited from earlier work
[2] = Experiment 3, 0.1% added to coagulant solution
[3] = Experiment 3, 1.0% added to coagulant solution
[4] = Experiment 3, added to the calcium containing coagulant solution, agent on one side of the film
[5] = Experiment 2, 0.1% added to nitrile rubber
[6] = Experiment 2, 0.1% in nitrile rubber, compared with control sample 12B/088
[7] = Experiment 4, incorporated into the coagulation layer / coagulant solution

| Compound | ZONE OF INHIBITION (Staphylococcus aureus; [2]) | ZONE OF INHIBITION (Staphylococcus aureus; [3]) | antibacterial performance (in words) (Staphylococcus aureus; [4]) | antibacterial properties of polymer film (in words) (Staphylococcus aureus; Experiment 1) | ZONE OF INHIBITION (Staphylococcus aureus; [5]) | antibacterial effectiveness (in words) (Staphylococcus aureus; [6]) | sides of the film exhibiting antibacterial activity (in words) (Staphylococcus aureus; Experiment 4) | antibacterial performance (in words) (Staphylococcus aureus; [7]) | other results |
| --- | --- | --- | --- | --- | --- | --- | --- | --- | --- |
| [H]/N=C(\N/C(=N/[H])NCCCCCCNC(=N)NC(=N)Nc1ccc(Cl)cc1)Nc1ccc(Cl)cc1 [Chlorhexidine] | 11 mm | 18 mm | effective antibacterial performance |  |  |  |  |  |  |
| Oc1cc(Cl)ccc1Oc1ccc(Cl)cc1Cl [Triclosan] | 10 mm |  | exhibited antibacterial performance but was not as effective as when it was incorporated into the nitrile rubber layer | exhibited antibacterial properties | 20 mm | significantly more effective | both sides of the film exhibit antibacterial activity |  | ZONE OF INHIBITION (Staphylococcus aureus; Experiment 1, 0.05% added to nitrile rubber): 15 mm; ZONE OF INHIBITION (Staphylococcus aureus; Experiment 2, 0.25% added to nitrile rubber): 18 mm; ZONE OF INHIBITION (Staphylococcus aureus; Experiment 3, 0.05% added to nitrile rubber): 12 mm; antibacterial effectiveness (in words) (Staphylococcus aureus; Experiment 3, 0.05% in the nitrile rubber film (run 12C/064)): effective; ZONE OF INHIBITION (Staphylococcus aureus; Experiment 3, 0.1% added to nitrile rubber): 17 mm; ZONE OF INHIBITION (Staphylococcus aureus; Experiment 3, 0.5% added to coagulant solution): 12 mm; ZONE OF INHIBITION (Staphylococcus aureus; Experiment 4, 0.1% added to nitrile rubber): 16 mm; antibacterial performance (in words) (Staphylococcus aureus; Experiment 4, incorporated into the nitrile rubber): good antibacterial performance; solubility in water [1]: 0.0012 g per liter |
| Cn1sc(Cl)cc1=O [Methylchloroisothiazolinone] |  |  |  |  |  |  |  |  | antibacterial effectiveness (in words) (Staphylococcus aureus; Experiment 3, 0.5%): effective antibacterial agent; ZONE OF INHIBITION (Staphylococcus aureus; Experiment 3, 0.5% added to nitrile rubber): 15 mm |
| Benzalkonium chloride [BTC 50E] |  | 30 mm | effective antibacterial performance |  |  |  |  | good results | ZONE OF INHIBITION (Staphylococcus aureus; Experiment 3, 0.22% added to coagulant solution): 14 mm; ZONE OF INHIBITION (Staphylococcus aureus; Experiment 4, 0.25% added to coagulant solution): 8 mm |
| Poly(hexamethylene biguanide) [PHMB] |  |  |  |  |  |  | only one side of the polymer film exhibits antibacterial performance | good results | ZONE OF INHIBITION (Staphylococcus aureus; Experiment 4, 0.3% added to coagulant solution, face down as normal): 16 mm; ZONE OF INHIBITION (Staphylococcus aureus; Experiment 4, 0.3% added to coagulant solution, film placed face up on the agar plate, biocide not on the side on the agar gel): 5 mm |
| O=c1[nH]sc2ccccc12 [Proxel (BIT), 1,2-Benzisothiazol-3((2H)-one] |  |  |  | exhibited antibacterial properties | 15 mm | significantly more effective |  |  | ZONE OF INHIBITION (Staphylococcus aureus; Experiment 1, 0.15% added to nitrile rubber): 9 mm |
